Measurements taken from patent US12421249B2, “Inhibitors of APOL1 and methods of using same” (Vertex Pharmaceuticals Incorporated, priority 2020, dated 2025).

Each molecule was assayed against T1, APOL1 (Homo sapiens, UniProt O14791) (assay: Multi-Tox Assay (MultiTox-Fluor Multiplex Cytotoxicity Assay in tet-inducible APOL1 T-REx-HEK293 cells; Table 46 does not say which APOL1 variant G0/G1/G2)). Settings: APOL1 variant not given.
T1 sequence (O14791 1-398 S342G/I384M): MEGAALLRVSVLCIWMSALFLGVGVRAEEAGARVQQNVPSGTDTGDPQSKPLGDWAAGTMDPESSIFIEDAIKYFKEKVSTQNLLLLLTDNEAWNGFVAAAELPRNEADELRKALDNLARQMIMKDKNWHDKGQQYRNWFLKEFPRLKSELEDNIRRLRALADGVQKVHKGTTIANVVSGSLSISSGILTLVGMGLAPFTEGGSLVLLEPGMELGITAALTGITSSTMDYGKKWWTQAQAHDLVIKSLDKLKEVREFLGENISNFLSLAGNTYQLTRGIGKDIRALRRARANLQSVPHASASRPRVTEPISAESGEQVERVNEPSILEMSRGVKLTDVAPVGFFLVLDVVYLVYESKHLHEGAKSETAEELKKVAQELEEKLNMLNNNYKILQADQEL
Format: cell-based

Row | SMILES | Multi-Tox Assay Max Activity (%)
1 | CCc1nc([C@@H]2C[C@]3(C[C@H](C)N2)OCCc2cc(Cl)sc23)c[nH]1 (racemic) [Compound 128] | 99.3
2 | C[C@H]1C[C@@]2(C[C@@H](c3cnc(N4CCN(C)CC4)nc3)N1)OCCc1cc(Cl)sc12 (racemic) [Compound 129] | 100.0
3 | C[C@H]1C[C@@]2(C[C@@H](c3c[nH]c(C4CC4)n3)N1)OCCc1cc(Cl)sc12 (racemic) [Compound 130] | 99.0
4 | C[C@H]1C[C@@]2(C[C@@H](c3cc4n(n3)CCCO4)N1)OCCc1cc(Cl)sc12 (racemic) [Compound 131] | 99.3
5 | Cc1nocc1[C@@H]1C[C@]2(C[C@H](C)N1)OCCc1cc(Cl)sc12 (racemic) [Compound 132] | 99.3
6 | C[C@H]1C[C@@]2(C[C@@H](c3cn(CC(N)=O)nn3)N1)OCCc1cc(Cl)sc12 (racemic) [Compound 133] | 99.7
7 | Cc1cnc([C@@H]2C[C@]3(C[C@H](C)N2)OCCc2cc(Cl)sc23)o1 (racemic) [Compound 134] | 99.2
8 | COc1cc(O)cc([C@@H]2C[C@]3(C[C@H](C)N2)OCCc2cc(Cl)sc23)c1 (racemic) [Compound 137] | 98.7
9 | Cc1cc([C@@H]2C[C@]3(C[C@H](C)N2)OCCc2cc(Cl)sc23)nc(N(C)C)n1 (racemic) [Compound 138] | 98.0
10 | Cc1ccnc([C@@H]2C[C@]3(C[C@H](C)N2)OCCc2cc(Cl)sc23)c1 (racemic) [Compound 139] | 98.0

Same assay, conditions: IP50 = IC50 for cell proliferation, APOL1 variant not given

Row | SMILES | IC50 [µM]
11 | CCc1nc([C@@H]2C[C@]3(C[C@H](C)N2)OCCc2cc(Cl)sc23)c[nH]1 (racemic) [Compound 128] | 0.05 to 0.5
12 | C[C@H]1C[C@@]2(C[C@@H](c3cnc(N4CCN(C)CC4)nc3)N1)OCCc1cc(Cl)sc12 (racemic) [Compound 129] | 0.05 to 0.5
13 | C[C@H]1C[C@@]2(C[C@@H](c3c[nH]c(C4CC4)n3)N1)OCCc1cc(Cl)sc12 (racemic) [Compound 130] | 0.05 to 0.5
14 | C[C@H]1C[C@@]2(C[C@@H](c3cc4n(n3)CCCO4)N1)OCCc1cc(Cl)sc12 (racemic) [Compound 131] | 0.05 to 0.5
15 | Cc1nocc1[C@@H]1C[C@]2(C[C@H](C)N1)OCCc1cc(Cl)sc12 (racemic) [Compound 132] | 0.05 to 0.5
16 | C[C@H]1C[C@@]2(C[C@@H](c3cn(CC(N)=O)nn3)N1)OCCc1cc(Cl)sc12 (racemic) [Compound 133] | 0.05 to 0.5
17 | Cc1cnc([C@@H]2C[C@]3(C[C@H](C)N2)OCCc2cc(Cl)sc23)o1 (racemic) [Compound 134] | 0.05 to 0.5
18 | COc1cc(O)cc([C@@H]2C[C@]3(C[C@H](C)N2)OCCc2cc(Cl)sc23)c1 (racemic) [Compound 137] | 0.05 to 0.5
19 | Cc1cc([C@@H]2C[C@]3(C[C@H](C)N2)OCCc2cc(Cl)sc23)nc(N(C)C)n1 (racemic) [Compound 138] | 0.05 to 0.5
20 | Cc1ccnc([C@@H]2C[C@]3(C[C@H](C)N2)OCCc2cc(Cl)sc23)c1 (racemic) [Compound 139] | 0.05 to 0.5

Each molecule was assayed against T2, APOL1 G1 (Homo sapiens, UniProt O14791, I384M/S342G) (assay: Trypanosoma brucei brucei Lysis Assay Using APOL1 Recombinant Protein (AlamarBlue viability readout)). Settings: Trypanosome Assay; IP50 = IC50 for cell proliferation; read-out: Trypanosome Assay IP50.
T2 sequence (O14791 28-398 S342G/I384M): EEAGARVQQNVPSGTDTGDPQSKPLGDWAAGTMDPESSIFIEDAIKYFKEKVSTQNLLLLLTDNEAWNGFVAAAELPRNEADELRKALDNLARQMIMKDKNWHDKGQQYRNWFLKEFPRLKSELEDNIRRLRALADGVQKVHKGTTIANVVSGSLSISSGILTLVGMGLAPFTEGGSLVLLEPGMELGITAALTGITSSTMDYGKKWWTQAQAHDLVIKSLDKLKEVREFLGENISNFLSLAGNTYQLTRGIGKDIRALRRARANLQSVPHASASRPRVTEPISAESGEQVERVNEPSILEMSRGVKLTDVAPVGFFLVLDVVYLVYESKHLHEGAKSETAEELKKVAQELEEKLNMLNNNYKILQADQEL
Format: cell-based
Procedure, shortened: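 Percent viability comes from AlamarBlue (resazurin→resorufin) fluorescence interpolated on a standard curve of known parasite numbers, with no-APOL1 wells as 100%. Parasites (Lister 427 bloodstream form, 120,000/well, serum-free assay medium) meet 0.05 μg/mL APOL1 (~EC90). Compounds span a 10-point series, 0.1% DMSO final.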

Row | SMILES | IC50 [µM]
21 | CCc1nc([C@@H]2C[C@]3(C[C@H](C)N2)OCCc2cc(Cl)sc23)c[nH]1 (racemic) [Compound 128] | 0.05 to 0.5
22 | C[C@H]1C[C@@]2(C[C@@H](c3cnc(N4CCN(C)CC4)nc3)N1)OCCc1cc(Cl)sc12 (racemic) [Compound 129] | < 0.05
23 | C[C@H]1C[C@@]2(C[C@@H](c3c[nH]c(C4CC4)n3)N1)OCCc1cc(Cl)sc12 (racemic) [Compound 130] | 0.05 to 0.5
24 | C[C@H]1C[C@@]2(C[C@@H](c3cc4n(n3)CCCO4)N1)OCCc1cc(Cl)sc12 (racemic) [Compound 131] | 0.05 to 0.5
25 | Cc1nocc1[C@@H]1C[C@]2(C[C@H](C)N1)OCCc1cc(Cl)sc12 (racemic) [Compound 132] | 0.05 to 0.5
26 | C[C@H]1C[C@@]2(C[C@@H](c3cn(CC(N)=O)nn3)N1)OCCc1cc(Cl)sc12 (racemic) [Compound 133] | 0.05 to 0.5
27 | Cc1cnc([C@@H]2C[C@]3(C[C@H](C)N2)OCCc2cc(Cl)sc23)o1 (racemic) [Compound 134] | 0.05 to 0.5
28 | COc1cc(O)cc([C@@H]2C[C@]3(C[C@H](C)N2)OCCc2cc(Cl)sc23)c1 (racemic) [Compound 137] | 0.05 to 0.5
29 | Cc1cc([C@@H]2C[C@]3(C[C@H](C)N2)OCCc2cc(Cl)sc23)nc(N(C)C)n1 (racemic) [Compound 138] | 0.05 to 0.5
30 | Cc1ccnc([C@@H]2C[C@]3(C[C@H](C)N2)OCCc2cc(Cl)sc23)c1 (racemic) [Compound 139] | > 0.5

Same assay, conditions: Trypanosome Assay; read-out: Trypanosome Assay Max Activity (%)

Row | SMILES | Emax [%]
31 | CCc1nc([C@@H]2C[C@]3(C[C@H](C)N2)OCCc2cc(Cl)sc23)c[nH]1 (racemic) [Compound 128] | 107
32 | C[C@H]1C[C@@]2(C[C@@H](c3cnc(N4CCN(C)CC4)nc3)N1)OCCc1cc(Cl)sc12 (racemic) [Compound 129] | 88
33 | C[C@H]1C[C@@]2(C[C@@H](c3c[nH]c(C4CC4)n3)N1)OCCc1cc(Cl)sc12 (racemic) [Compound 130] | 102
34 | C[C@H]1C[C@@]2(C[C@@H](c3cc4n(n3)CCCO4)N1)OCCc1cc(Cl)sc12 (racemic) [Compound 131] | 111
35 | Cc1nocc1[C@@H]1C[C@]2(C[C@H](C)N1)OCCc1cc(Cl)sc12 (racemic) [Compound 132] | 91.5
36 | C[C@H]1C[C@@]2(C[C@@H](c3cn(CC(N)=O)nn3)N1)OCCc1cc(Cl)sc12 (racemic) [Compound 133] | 111
37 | Cc1cnc([C@@H]2C[C@]3(C[C@H](C)N2)OCCc2cc(Cl)sc23)o1 (racemic) [Compound 134] | 96.7
38 | COc1cc(O)cc([C@@H]2C[C@]3(C[C@H](C)N2)OCCc2cc(Cl)sc23)c1 (racemic) [Compound 137] | 84.5
39 | Cc1cc([C@@H]2C[C@]3(C[C@H](C)N2)OCCc2cc(Cl)sc23)nc(N(C)C)n1 (racemic) [Compound 138] | 104
40 | Cc1ccnc([C@@H]2C[C@]3(C[C@H](C)N2)OCCc2cc(Cl)sc23)c1 (racemic) [Compound 139] | 98.3
